Columns and labels:
Format in all cases: cell-based
erythropoietin = assay: In vitro erythropoietin induction (ELISA of culture supernatant); details: Hep3B cell line, relative to vehicle control; for EPO fold induction: 16 hours
Protocol: Hep3B cell line (ATCC HB8064) was employed. Induction of erythropoietin was carried out for the indicated dose of compounds for 16 hours duration. At the end of 16 hours, cell culture medium was collected and centrifuged to remove any debris. Supernatant obtained was analyzed for erythropoietin by ELISA (R&D systems, USA). The results were expressed as fold induction as compared to vehicle control.

adrenomedullin mRNA = assay: In vitro induction of adrenomedullin (mRNA, real-time PCR); details: Hep3B cell line, 200 uM, 6 hours, normalized to 18S rRNA, relative to vehicle control
Protocol: Hep3B cell line (ATCC HB8064) was employed. […] At the end of 6 hours, cells were lysed and total RNA was isolated. Expression of adrenomedullin mRNA along-with expression of 18S rRNA was monitored by real-time PCR. Adrenomedullin mRNA expression was normalized relative to the expression of 18S rRNA. The results were expressed as fold induction of adrenomedullin mRNA relative to vehicle treated control.

VEGF = assay: In vitro induction of vascular endothelial growth factor (ELISA of culture supernatant); details: Hep3B cell line, 200 uM, 16 hours, relative to vehicle control
Protocol: Hep3B cell line (ATCC HB8064) was employed. […] Supernatant obtained was analyzed for VEGF by ELISA (R&D systems, USA).

| Structure (SMILES) | EPO fold induction (erythropoietin; 200 uM) | also measured |
| --- | --- | --- |
| CC(C)[C@H](NC(=O)c1c(O)nc2sc3c(n2c1=O)CCC(C)(C)C3)C(=O)O (single isomer, unassigned) [Compound 43, 2-[(2-Hydroxy-7,7-dimethyl-4-oxo-5,6,7,8-tetrahydro-4H-9-thia-1,4a-diaza-fluorene-3-carbonyl)-amino]-3-methyl-butyric acid (L-isomer)] | + (<2 fold) |  |
| C[C@@H](NC(=O)c1c(O)nc2sc3c(n2c1=O)CCC(C)(C)C3)C(=O)O (single isomer, unassigned) [Compound 44, 2-[(2-Hydroxy-7,7-dimethyl-4-oxo-5,6,7,8-tetrahydro-4H-9-thia-1,4a-diaza-fluorene-3-carbonyl)-amino]-propionic acid (D-isomer)] | + (<2 fold) |  |
| CC1(C)CCc2c(sc3nc(O)c(C(=O)N[C@H](C(=O)O)c4ccccc4)c(=O)n23)C1 (single isomer, unassigned) [Compound 55, [(2-Hydroxy-7,7-dimethyl-4-oxo-5,6,7,8-tetrahydro-4H-9-thia-1,4a-diaza-fluorene-3-carbonyl)-amino]-phenyl-acetic acid, L-isomer] | + (<2 fold) |  |
| O=C(O)CNC(=O)c1c(O)nc2sc3c(n2c1=O)CCC3 [Compound 11, [(2-Hydroxy-4-oxo-7,8-dihydro-4H,6H-cyclopenta[4,5]thiazolo[3,2-a]pyrimidine-3-carbonyl)-amino]-acetic acid] | +++ (5-8 fold) |  |
| O=C(O)CCNC(=O)c1c(O)nc2sc3c(n2c1=O)CCC3 [Compound 14, 3-[(2-Hydroxy-4-oxo-7,8-dihydro-4H,6H-cyclopenta[4,5]thiazolo[3,2-a]pyrimidine-3-carbonyl)-amino]-propionic acid] | ++ (2-4 fold) |  |
| COc1cc(OC)cc(C(=O)N2CCc3c(sc4nc(O)c(C(=O)NCC(=O)O)c(=O)n34)C2)c1 [Compound 41, {[7-(3,5-Dimethoxy-benzoyl)-2-hydroxy-4-oxo-5,6,7,8-tetrahydro-4H-9-thia-1,4a,7-triaza-fluorene-3-carbonyl]-amino}-acetic acid] |  | fold induction at 200 µM (erythropoietin; Homo sapiens, Hep3B, 16 h, 200 uM, read-out: EPO fold induction): 2 to 4 |
| CC1(C)CCc2c(sc3nc(O)c(C(=O)NCC(=O)[O-])c(=O)n23)C1.CC1(C)CCc2c(sc3nc(O)c(C(=O)NCC(=O)[O-])c(=O)n23)C1.[Na+].[Na+] [Compound 80, [(2-Hydroxy-7,7-dimethyl-4-oxo-5,6,7,8-tetrahydro-4H-9-thia-1,4a-diaza-fluorene-3-carbonyl)-amino]-acetic acid, Disodium salt] | ++++ (9-16 fold) |  |
| O=C([O-])CNC(=O)c1c(O)nc2sc3c(n2c1=O)CCCCC3.O=C([O-])CNC(=O)c1c(O)nc2sc3c(n2c1=O)CCCCC3.[Na+].[Na+] [Compound 82, [(2-Hydroxy-4-oxo-6,7,8,9-tetrahydro-4H,5H-10-thia-1,4a-diaza-benzo[a]azulene-3-carbonyl)-amino]-acetic acid, Disodium salt] |  | Adrenomedullin mRNA (fold induction) (adrenomedullin mRNA): +++ (5-8 fold); EPO fold induction (erythropoietin; 50 uM): ++++ (9-16 fold); VEGF (Fold induction) (VEGF): ++ (2-4 fold induction of VEGF) |

Reference: patent publication US8822484B2, “Fused thiazolo and oxazolo pyrimidinones” (Torrent Pharmaceuticals Limited, priority 2009, dated 2014)
